The target in test [1] is Serine/threonine-protein kinase Nek1 (Homo sapiens) (UniProt Q96PY6). As to the kind of experiment: Binding affinity to wild-type human partial length NEK1 (M1 to K278 residues) expressed in bacterial expression system assessed as remaining unbound target protein level at 1000 nM by Kinomescan method relative to control.
Test [2] addresses Serine/threonine-protein kinase PAK 6 (Homo sapiens) (UniProt Q9NQU5). Nature of the test: Binding affinity to wild-type human partial length PAK6 (N298 to C681 residues) expressed in bacterial expression system assessed as remaining unbound target protein level at 1000 nM by Kinomescan method relative to control.

Chain of Serine/threonine-protein kinase Nek1 (Homo sapiens) (Q96PY6 whole entry, the tested form may be a part): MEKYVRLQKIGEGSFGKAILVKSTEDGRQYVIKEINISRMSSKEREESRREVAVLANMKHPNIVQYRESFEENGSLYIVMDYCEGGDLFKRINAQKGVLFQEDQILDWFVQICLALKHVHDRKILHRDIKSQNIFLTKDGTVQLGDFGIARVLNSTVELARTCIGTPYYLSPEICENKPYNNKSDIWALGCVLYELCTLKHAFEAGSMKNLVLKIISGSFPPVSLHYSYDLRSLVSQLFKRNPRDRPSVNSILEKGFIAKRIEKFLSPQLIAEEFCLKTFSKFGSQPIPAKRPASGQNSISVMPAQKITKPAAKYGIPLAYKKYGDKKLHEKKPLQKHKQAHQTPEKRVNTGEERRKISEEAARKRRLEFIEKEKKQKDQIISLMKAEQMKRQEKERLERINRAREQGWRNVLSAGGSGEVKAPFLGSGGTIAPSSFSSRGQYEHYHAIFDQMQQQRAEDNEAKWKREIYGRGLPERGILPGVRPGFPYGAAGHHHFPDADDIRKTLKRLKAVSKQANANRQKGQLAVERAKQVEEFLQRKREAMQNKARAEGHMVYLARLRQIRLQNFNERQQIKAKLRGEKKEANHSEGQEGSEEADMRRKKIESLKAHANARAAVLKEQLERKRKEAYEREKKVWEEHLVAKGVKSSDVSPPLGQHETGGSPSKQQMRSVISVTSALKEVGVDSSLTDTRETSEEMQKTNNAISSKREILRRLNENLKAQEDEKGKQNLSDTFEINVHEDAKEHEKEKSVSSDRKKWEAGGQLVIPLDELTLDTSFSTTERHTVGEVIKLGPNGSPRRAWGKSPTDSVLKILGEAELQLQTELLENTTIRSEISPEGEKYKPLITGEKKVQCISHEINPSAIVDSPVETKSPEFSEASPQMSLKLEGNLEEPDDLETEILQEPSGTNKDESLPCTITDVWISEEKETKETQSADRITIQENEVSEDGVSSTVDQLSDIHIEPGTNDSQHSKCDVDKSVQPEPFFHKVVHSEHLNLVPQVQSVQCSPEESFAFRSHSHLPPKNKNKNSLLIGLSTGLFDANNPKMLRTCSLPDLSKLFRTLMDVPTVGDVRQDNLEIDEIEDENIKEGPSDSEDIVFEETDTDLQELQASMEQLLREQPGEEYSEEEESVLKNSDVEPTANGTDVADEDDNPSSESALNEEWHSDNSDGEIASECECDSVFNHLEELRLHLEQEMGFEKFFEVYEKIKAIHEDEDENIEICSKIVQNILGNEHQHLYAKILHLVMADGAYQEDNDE
Chain of Serine/threonine-protein kinase PAK 6 (Homo sapiens) (Q9NQU5 whole entry, looked up, the tested form may be a part): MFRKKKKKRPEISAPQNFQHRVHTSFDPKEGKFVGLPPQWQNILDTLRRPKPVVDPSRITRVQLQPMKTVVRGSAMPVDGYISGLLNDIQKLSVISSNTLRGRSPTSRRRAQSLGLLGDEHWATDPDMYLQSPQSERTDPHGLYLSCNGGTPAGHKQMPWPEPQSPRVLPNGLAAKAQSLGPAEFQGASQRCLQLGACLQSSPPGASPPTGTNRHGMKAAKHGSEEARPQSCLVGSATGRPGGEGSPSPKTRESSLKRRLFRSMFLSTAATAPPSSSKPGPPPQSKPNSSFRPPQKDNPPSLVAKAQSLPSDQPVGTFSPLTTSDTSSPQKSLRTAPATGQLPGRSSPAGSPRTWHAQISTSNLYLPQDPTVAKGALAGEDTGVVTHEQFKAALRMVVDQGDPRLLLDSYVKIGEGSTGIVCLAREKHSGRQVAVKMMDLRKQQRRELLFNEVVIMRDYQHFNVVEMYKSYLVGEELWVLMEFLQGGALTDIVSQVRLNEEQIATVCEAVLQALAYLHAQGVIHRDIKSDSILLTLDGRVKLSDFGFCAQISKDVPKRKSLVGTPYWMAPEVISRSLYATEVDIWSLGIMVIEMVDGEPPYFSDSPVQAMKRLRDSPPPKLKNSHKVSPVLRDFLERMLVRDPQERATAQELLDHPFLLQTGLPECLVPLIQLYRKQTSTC

As for `COCCN[C@H]1CC[C@H](Nc2cc(-c3csc(NCC4(C#N)CCOCC4)n3)c(Cl)cn2)CC1`, the Activity in test [1] was found to be 85%; in test [2] it was 92%.

The record behind these values is ChEMBL document CHEMBL4261600 (Eur J Med Chem, 2018).
